Source: patent US20250171459A1, “2-METHYL-4',5'-DIHYDROSPIRO[PIPERIDINE-4,7'-THIENO[2,3-C]PYRAN] DERIVATIVES AS INHIBITORS OF APOL1 AND METHODS OF USING SAME” (Vertex Pharmaceuticals Incorporated, priority 2022, published 2025)

target: T1, APOL1 (Homo sapiens, UniProt O14791); test: MultiTox-Fluor Multiplex Cytotoxicity Assay in tet-inducible APOL1 T-REx-HEK293 cells (cell rescue, ratio of dead to live cells); assay type: cell-based; conditions: tet-inducible transgenic APOL1 T-REx-HEK293 cell lines, 50 ng/mL tet, 24 hours; read-out: IP50 (i.e., IC50 for cell proliferation)
T1 sequence (O14791 1-398 S342G/I384M): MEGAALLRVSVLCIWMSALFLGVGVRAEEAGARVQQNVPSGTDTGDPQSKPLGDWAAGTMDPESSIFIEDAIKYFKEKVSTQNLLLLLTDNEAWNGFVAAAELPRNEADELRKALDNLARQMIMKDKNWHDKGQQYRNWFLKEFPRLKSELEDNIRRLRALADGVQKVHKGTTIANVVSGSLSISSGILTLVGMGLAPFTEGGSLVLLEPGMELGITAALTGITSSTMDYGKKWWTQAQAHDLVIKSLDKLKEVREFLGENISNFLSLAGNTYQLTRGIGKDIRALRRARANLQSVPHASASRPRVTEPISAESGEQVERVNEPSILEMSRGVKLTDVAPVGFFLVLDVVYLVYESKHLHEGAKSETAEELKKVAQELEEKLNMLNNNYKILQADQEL
Procedure, shortened: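 T-REx-HEK293 cells with tet-inducible APOL1 were treated with compound (10 μM top, 10-point 3-fold dilution, duplicate) plus 50 ng/mL tetracycline for 24 h at 37° C, in DMEM with 2% tet-free FBS. MultiTox-Fluor protease signals gave a dead/live ratio, normalized to no tet (100% viability) and tet alone (0%).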

**Q.** CCc1cc2c(s1)CCO[C@@]21CCN(Cc2cnc(N[C@H]3CC[C@H](O)C3)nc2)[C@@H](C)C1 [Compound 204] was tested. Which IC50 did it give?
**A.** < 100 nM

**Q.** CCc1cc2c(s1)CCO[C@@]21CCN(CC2CN(C(=O)c3ccc(=O)[nH]c3)C2)[C@@H](C)C1 [Compound 485] was tested. Which IC50 did it give?
**A.** < 100 nM

**Q.** Which IC50 does the source give for C[C@H]1C[C@@]2(CCN1Cc1cn(CCS(C)(=O)=O)nn1)OCCc1sc(Br)cc12 [Compound 522, (2′S,4R)-2-bromo-2′-methyl-1′-[[1-(2-methylsulfonylethyl)triazol-4-yl]methyl]spiro[6,7-dihydrothieno[3,2-c]pyran-4,4′-piperidine]] here?
**A.** < 100 nM

**Q.** With C[C@H]1C[C@@]2(CCN1Cc1ccc(OCCO)cc1)OC[C@H](O)c1cc(Cl)sc12 [Compound 775] as the molecule, how does the IC50 read?
**A.** < 100 nM

**Q.** Which IC50 does the source give for CCc1cc2c(s1)CCO[C@@]21CCN(C[C@H]2C[C@@H](NC(=O)C3CC(F)(F)C3)C2)[C@@H](C)C1 [Compound 300, N-[3-[[(2′S,4R)-2-ethyl-2′-methyl-spiro[6,7-dihydrothieno[3,2-c]pyran-4,4′-piperidine]-1′-yl]methyl]cyclobutyl]-3,3-difluoro-cyclobutanecarboxamide] here?
**A.** < 100 nM

**Q.** For C[C@H]1C[C@@]2(CCN1Cc1cn[nH]c1)OC[C@](O)(C(F)F)c1cc(Cl)sc12 [Compound 828, (2′S,4S,7R)-2-chloro-4-(difluoromethyl)-2′-methyl-1′-(1H-pyrazol-4-ylmethyl)spiro[5H-thieno[2,3-c]pyran-7,4′-piperidine]-4-ol], which IC50 is on record?
**A.** < 100 nM

**Q.** With CCc1cc2c(s1)CCOC21CCN(Cc2cnc(N3CCCCC3)s2)CC1 [Compound 1137] as the molecule, how does the IC50 read?
**A.** 100 to 500 nM

**Q.** For CCc1cc2c(s1)CCOC21CCN(Cc2ccncc2)CC1 [Compound 1153], which IC50 is on record?
**A.** 500 to 1000 nM

**Q.** CNC(=O)[C@H](O)Cn1cc(CN2CC[C@]3(C[C@@H]2C)OC[C@@H](O)c2cc(C(F)(F)F)sc23)cn1 [Compound 993] was tested. Which IC50 did it give?
**A.** 100 to 500 nM

**Q.** How did the IC50 turn out when CCc1cc2c(s1)CCO[C@@]21CCN(C[C@H]2C[C@@H](NC(=O)OCCOC)C2)[C@@H](C)C1 [Compound 374] was run?
**A.** 100 to 500 nM

**Q.** CCc1cc2c(s1)CCO[C@@]21CCN(Cc2cn(CC3COCCO3)nn2)[C@@H](C)C1 (stereo partly shown) [Compound 136] was tested. Which IC50 did it give?
**A.** < 100 nM

**Q.** Which IC50 does the source give for CCc1cc2c(s1)CCO[C@@]21CCN(Cc2cn(CS(=O)(=O)CC)nn2)[C@@H](C)C1 [Compound 14, (2′S)-2-ethyl-1′-[[1-(ethylsulfonylmethyl)triazol-4-yl]methyl]-2′-methyl-spiro[6,7-dihydrothieno[3,2-c]pyran-4,4′-piperidine]] here?
**A.** 100 to 500 nM

**Q.** How did the IC50 turn out when CCc1nnc(Cn2cc(CN3CCC4(CC3)OCCc3sc(CC)cc34)nn2)o1 [Compound 1087] was run?
**A.** 500 to 1000 nM

**Q.** How did the IC50 turn out when CCc1cc2c(s1)CCOC21CCN(Cc2cn(CC(O)C3CCOCC3)nn2)C(C)C1 (stereo not shown) [Compound 86] was run?
**A.** < 100 nM

**Q.** For C[C@H]1C[C@@]2(CCN1Cc1cn(CCS(C)(=O)=O)nn1)OCCc1sc(C(F)(F)F)cc12 [Compound 525, (2′S,4R)-2′-methyl-1′-[[1-(2-methylsulfonylethyl)triazol-4-yl]methyl]-2-(trifluoromethyl)spiro[6,7-dihydrothieno[3,2-c]pyran-4,4′-piperidine]], which IC50 is on record?
**A.** < 100 nM

**Q.** C[C@H]1C[C@@]2(CCN1Cc1ccc(C(=O)N(C)C)cc1)OCCc1c2sc(Cl)c1CO [Compound 743] was tested. Which IC50 did it give?
**A.** 100 to 500 nM

**Q.** How did the IC50 turn out when CCCCC(O)C(=O)N[C@H]1C[C@@H](CN2CC[C@]3(C[C@@H]2C)OCCc2sc(CC)cc23)C1 (stereo partly shown) [Compound 306] was run?
**A.** < 100 nM

**Q.** For Cc1cncc(CN2CC[C@]3(C[C@@H]2C)OCCc2c3sc(Cl)c2CO)c1 [Compound 723], which IC50 is on record?
**A.** 100 to 500 nM

**Q.** Which IC50 does the source give for Cc1ccc(CN2CC[C@]3(C[C@@H]2C)OCCc2c3sc(Cl)c2CO)c(C)n1 [Compound 732] here?
**A.** 500 to 1000 nM

**Q.** For CS(=O)(=O)CCn1cc(CN2CCC3(CC2C2CC2)OCCc2cc(Cl)sc23)cn1 (stereo not shown) [Compound 1040, 2-chloro-2′-cyclopropyl-1′-[[1-(2-methylsulfonylethyl)pyrazol-4-yl]methyl]spiro[4,5-dihydrothieno[2,3-c]pyran-7,4′-piperidine]], which IC50 is on record?
**A.** < 100 nM

**Q.** Which IC50 does the source give for C[C@H]1C[C@@]2(CCN1Cc1ccc[nH]c1=O)OCCc1cc(CC(F)F)sc12 [Compound 577] here?
**A.** 100 to 500 nM

**Q.** CCc1cc2c(s1)CCO[C@@]21CCN(Cc2cn(C3CN(S(=O)(=O)c4nccn4C)C3)nn2)[C@@H](C)C1 [Compound 3] was tested. Which IC50 did it give?
**A.** < 100 nM

**Q.** How did the IC50 turn out when CCc1cc2c(s1)CCO[C@@]21CCN(CC(O)CC#N)[C@@H](C)C1 (stereo partly shown) [Compound 280] was run?
**A.** 100 to 500 nM

**Q.** CCc1cc2c(s1)CCO[C@@]21CCN(CC2CN(C(=O)CCC3CCCC3)C2)[C@@H](C)C1 [Compound 434] was tested. Which IC50 did it give?
**A.** < 100 nM

**Q.** How did the IC50 turn out when CCc1cc2c(s1)CCOC21CCN(Cc2cncnc2)CC1 [Compound 1156] was run?
**A.** 500 to 1000 nM

**Q.** How did the IC50 turn out when CS(=O)(=O)CCn1cc(CN2CCC3(CC2)OCC(O)c2cc(Cl)sc23)cn1 (stereo not shown) [Compound 1181, 2-chloro-1′-[[1-(2-methylsulfonylethyl)pyrazol-4-yl]methyl]spiro[4,5-dihydrothieno[2,3-c]pyran-7,4′-piperidine]-4-ol] was run?
**A.** 500 to 1000 nM

**Q.** C[C@H]1C[C@@]2(CCN1Cc1cnn(CC(O)C3CCOCC3)c1)OCCc1c2sc(C(F)(F)F)c1CO (stereo partly shown) [Compound 959] was tested. Which IC50 did it give?
**A.** < 100 nM

**Q.** How did the IC50 turn out when C[C@H]1C[C@@]2(CCN1C[C@H](O)C(N)=O)OCCc1cc(Cl)sc12 [Compound 708, (2S)-3-[(2′S, 7R)-2-chloro-2′-methyl-spiro[4,5-dihydrothieno[2,3-c]pyran-7,4′-piperidine]-1′-yl]-2-hydroxy-propanamide] was run?
**A.** 100 to 500 nM

**Q.** CCc1cc2c(s1)CCO[C@@]21CCN(Cc2cn(CC(=O)NC3CC3)nn2)[C@@H](C)C1 [Compound 59] was tested. Which IC50 did it give?
**A.** < 100 nM

**Q.** How did the IC50 turn out when Cc1nnc(Cn2cc(CN3CC[C@]4(C[C@@H]3C)OCCc3c4sc(C(F)(F)F)c3CO)cn2)o1 [Compound 923] was run?
**A.** < 100 nM

**Q.** For C[C@H]1C[C@@]2(CCN1Cc1cn(CCS(C)(=O)=O)nn1)OCC(O)c1cc(Cl)sc12 (stereo partly shown) [Compound 823], which IC50 is on record?
**A.** 100 to 500 nM

**Q.** Which IC50 does the source give for CCc1cc2c(s1)CCO[C@@]21CCN(Cc2cn(C(C)(C)CS(C)(=O)=O)nn2)[C@@H](C)C1 [Compound 168] here?
**A.** 500 to 1000 nM

**Q.** CCc1cc2c(s1)CCOC21CCN(Cc2ccc(C(=O)Nc3cccc4cc[nH]c34)nc2)CC1 [Compound 1048] was tested. Which IC50 did it give?
**A.** < 100 nM

**Q.** Which IC50 does the source give for C[C@H]1C[C@@]2(CCN1Cc1cnccn1)OC[C@H](O)c1cc(Cl)sc12 [Compound 778] here?
**A.** 500 to 1000 nM

**Q.** For CCc1cc2c(s1)CCO[C@@]21CCN(Cc2cn([C@H]3C[C@H](O)C3)nn2)[C@@H](C)C1 [Compound 151], which IC50 is on record?
**A.** < 100 nM

**Q.** For C[C@H]1C[C@@]2(CCN1Cc1cnn(Cc3nnnn3C)c1)OCCc1c2sc(C(F)(F)F)c1CO [Compound 914], which IC50 is on record?
**A.** < 100 nM

**Q.** How did the IC50 turn out when CCc1cc2c(s1)CCO[C@@]21CCN(Cc2cn(Cc3cnn(C)n3)nn2)[C@@H](C)C1 [Compound 167] was run?
**A.** < 100 nM

**Q.** CCc1cc2c(s1)CCO[C@@]21CCN(Cc2cn(CC3CCCN(S(C)(=O)=O)C3)nn2)[C@@H](C)C1 (stereo partly shown) [Compound 187] was tested. Which IC50 did it give?
**A.** 100 to 500 nM

**Q.** For C[C@H]1C[C@@]2(CCN1Cc1ccc(S(C)(=O)=O)cc1)OCCc1cc(Cl)sc12 [Compound 654], which IC50 is on record?
**A.** 100 to 500 nM

**Q.** Which IC50 does the source give for CCc1cc2c(s1)CCO[C@@]21CCN(CC(=O)C(C)(C)C)[C@@H](C)C1 [Compound 290] here?
**A.** 500 to 1000 nM

**Q.** CCc1cc2c(s1)CCO[C@@]21CCN(Cc2cn(C3CN(C(=O)OC(C)(C)C)C3)nn2)[C@@H](C)C1 [Compound 21] was tested. Which IC50 did it give?
**A.** < 100 nM

**Q.** With COc1cc(CN2CC[C@]3(C[C@@H]2C)OC[C@H](O)c2cc(Cl)sc23)ccc1OCC(N)=O [Compound 776] as the molecule, how does the IC50 read?
**A.** < 100 nM

**Q.** How did the IC50 turn out when CCc1cc2c(s1)CCO[C@@]21CCN(CC2CN(C(=O)C3(O)CCOCC3)C2)[C@@H](C)C1 [Compound 437] was run?
**A.** < 100 nM
